In patent publication US20220031740A1, “THERAPEUTIC USES OF ATOMIC QUANTUM CLUSTERS” (priority 2018, published 2022):

Experiments:
Nrf2 = Nrf2 location by immunofluorescence in HEK293 cells; format: cell-based, human; settings: HEK293, 30 minutes; Ag5-AQC IC50, NEM 100 μM
E. Co/i = test: E. coli survival with Ag5-AQC and DTT; format: cell-based; settings: DTT at 10 mM
From the text: The mechanism responsible is thought to be thiol oxidation. […] The opposite is also true, i.e. Ag5-AQCs rescue E. Co/i from DTT action as expected from to redox agents with opposed action.

[1] = tested on: A549luc orthotopic lung tumour and mediastinal lymph node metastases; test: A549luc orthotopic lung cancer model metastasizing to mediastinal lymph nodes; format: in vivo
Experimental: (a) Ag5-AQCs cause a reduction in tumour growth in mice with orthotopic brain cancer. Experimental groups: Ag5-AQCs (0.25 mg/kg) and control (no treatment). (b-d) Ag5-AQCs treatment causes a reduction in tumour growth in mice with orthotopic lung cancer. (b) Tumour growth measured in vivo by luminescence (IVIS® Spectrum). Black arrows represent treatment administration times in the study. (c) Luciferase activity quantification measured ex vivo in lung and in mediastinal lymph nodes. (d) Immunohistochemical staining of lung tumour (arrows indicate the tumour nodules). Experimental groups: CDDP (4 mg/kg), Ag5-AQCs (0.25 mg/kg) and control (no treatment). (e) Body weight over the whole experiment. […]
For Ag5-AQCs treatment, mice were divided into three groups (5 animals in each): the first group (control) underwent no treatment, the second group was treated with cisplatin (CDDP) (four single doses, 4 mg/kg) and the third group was treated with Ag5-AQCs (four single doses, 0.25 mg/kg). […] The lung and mediastinal lymph nodes were removed and luminescence was quantified per microgram of protein in body as described in Borrajo et al. (2016). […]
Another limiting factor in cancer treatment is the occurrence of metastasis. […] In this model the occurrence of metastasis to lymph nodes is well established and could be detected 13 days after the injection of tumour cells. […]

CCN1C(=O)C=CC1=O [NEM, N-ethylmaleimide]
Nrf2 staining and nuclear location (Nrf2): increased the nuclear accumulation of Nrf2

O[C@H](CS)[C@H](O)CS (racemic) [DTT, Dithiothreitol]
E. coli survival, DTT alone (E. Co/i): toxic for bacteria

[NH2][Pt]([NH2])([Cl])[Cl] [CDDP, Cisplatin]
luciferase activity in the primary tumour and in the mediastinal lymph nodes (ex vivo) ([1]; day 37, vs control mice): significant reduction in luciferase activity
tumour size in lung (in vivo bioluminescence) ([1]; intravenously days 20, 22, 24, 26, CDDP 4 mg/kg, Ag5-AQC 0.25 mg/kg, 37 days, vs control): significant reduction in tumour size
